The source made the active and inactive calls. The rule behind the calls is not given here.
Key:
[1] = tested on: HEL; assay: Antitumor activity against HEL cells xenografted in Balb/c nude mouse assessed as tumor growth inhibition at 40 mg/kg, ip administered once daily for 14 consecutive days relative to control; format: functional, Homo sapiens; conditions: 336 h, time 14 day, read-out: TGI
[2] = tested on: HEL; assay: Antitumor activity against HEL cells xenografted in Balb/c nude mouse assessed as tumor growth inhibition at 80 mg/kg, ip administered once daily for 14 consecutive days relative to control; format: functional, Homo sapiens; conditions: 336 h, time 14 day, read-out: TGI
[3] = tested on: Mus musculus; assay: In vivo inhibition of JAK/STAT signalling in Balb/c nude mouse xenografted with HEL cells assessed as reduction in STAT5 phosphorylation in lung at 40 to 80 mg/kg, ip administered for 14 consecutive days by Western blot analysis; format: functional, organism-based; conditions: dose 40-80 mg/kg, time 14.0 day
[4] = tested on: Mus musculus; assay: In vivo inhibition of JAK/STAT signalling in Balb/c nude mouse xenografted with HEL cells assessed as reduction in STAT5 phosphorylation in spleen at 40 to 80 mg/kg, ip administered for 14 consecutive days by Western blot analysis; format: functional, organism-based; conditions: dose 40-80 mg/kg, time 14.0 day
[5] = tested on: HEL; assay: Antitumor activity against HEL cells xenografted in Balb/c nude mouse assessed as induction of apoptosis in tumor at 40 to 80 mg/kg, ip administered once daily for 14 consecutive days by TUNEL assay relative to control; format: functional, organism-based; conditions: Homo sapiens, dose 40-80 mg/kg, time 14.0 day
[6] = tested on: Mus musculus; assay: In vivo inhibition of JAK/STAT signalling in Balb/c nude mouse xenografted with HEL cells assessed as reduction in STAT5 phosphorylation in liver at 40 to 80 mg/kg, ip administered for 14 consecutive days by Western blot analysis; format: functional, organism-based; conditions: dose 40-80 mg/kg, time 14.0 day
[7] = tested on: Mus musculus; assay: In vivo inhibition of JAK/STAT signalling in Balb/c nude mouse xenografted with HEL cells assessed as reduction in STAT3 phosphorylation in kidney at 40 to 80 mg/kg, ip administered for 14 consecutive days by Western blot analysis; format: functional, organism-based; conditions: dose 40-80 mg/kg, time 14.0 day
[8] = tested on: HEL; assay: Inhibition of JAK/STAT phosphorylation in HEL cells assessed as reduction in STAT5 phosphorylation at 3 uM incubated under hypoxic condition by Western blot analysis; format: cell-based; conditions: Homo sapiens
[9] = tested on: HEL; assay: Inhibition of JAK/STAT phosphorylation in HEL cells assessed as reduction in STAT3 phosphorylation at 3 uM incubated under hypoxic condition by Western blot analysis; format: cell-based; conditions: Homo sapiens
[10] = Stability of compound in human plasma measured after 24 hrs; format: ADME, cell-free; conditions: 24 h
[11] = tested on: Mus musculus; assay: In vivo inhibition of JAK/STAT signalling in Balb/c nude mouse xenografted with HEL cells assessed as reduction in STAT3 phosphorylation in heart at 40 to 80 mg/kg, ip administered for 14 consecutive days by Western blot analysis; format: functional, organism-based; conditions: dose 40-80 mg/kg, time 14.0 day
[12] = Prodrug release in PBS buffer in presence of NADH and nitroreductase assessed as 3-cyclopropyl-1-(3-{5-[(morpholin-4-yl)methyl]-1H-1,3-benzodiazol-2-yl}-1H-pyrazol-4-yl)urea formation at 10 uM measured after 120 mins under hypoxic condition by LC-MS/MS analysis; format: ADME; conditions: 2 h
[13] = tested on: Mus musculus; assay: In vivo inhibition of JAK/STAT signalling in Balb/c nude mouse xenografted with HEL cells assessed as reduction in STAT5 phosphorylation in heart at 40 to 80 mg/kg, ip administered for 14 consecutive days by Western blot analysis; format: functional, organism-based; conditions: dose 40-80 mg/kg, time 14.0 day
[14] = tested on: Mus musculus; assay: In vivo inhibition of JAK/STAT signalling in Balb/c nude mouse xenografted with HEL cells assessed as reduction in STAT3 phosphorylation in lung at 40 to 80 mg/kg, ip administered for 14 consecutive days by Western blot analysis; format: functional, organism-based; conditions: dose 40-80 mg/kg, time 14.0 day
[15] = Stability of compound in mouse plasma measured after 24 hrs; format: ADME, cell-free; conditions: 24 h
[16] = tested on: HEL; assay: Inhibition of JAK/STAT phosphorylation in HEL cells assessed as reduction in STAT5 phosphorylation at 3 uM incubated under normoxic condition by Western blot analysis; format: cell-based; conditions: Homo sapiens
[17] = tested on: HEL; assay: Cytotoxicity against HEL cells assessed as inhibition of cell growth incubated under hypoxic condition; format: functional, cell-based; conditions: Homo sapiens
[18] = Prodrug release in HEL cells assessed as N-tert-butyl-3-[[5-methyl-2-(4-piperazin-1-ylanilino)pyrimidin-4-yl]amino]benzenesulfonamide formation at 1 uM incubated for 24 hrs under hypoxic condition by LC-MS/MS analysis; format: ADME, cell-based; conditions: human
[19] = tested on: Mus musculus; assay: In vivo inhibition of JAK/STAT signalling in Balb/c nude mouse xenografted with HEL cells assessed as reduction in STAT3 phosphorylation in liver at 40 to 80 mg/kg, ip administered for 14 consecutive days by Western blot analysis; format: functional, organism-based; conditions: dose 40-80 mg/kg, time 14.0 day
[20] = Prodrug release in HEL cells assessed as 3-cyclopropyl-1-(3-{5-[(morpholin-4-yl)methyl]-1H-1,3-benzodiazol-2-yl}-1H-pyrazol-4-yl)urea formation at 1 uM incubated for 24 hrs under hypoxic condition by LC-MS/MS analysis; format: ADME, cell-based; conditions: human
[21] = tested on: HEL; assay: Inhibition of JAK/STAT phosphorylation in HEL cells assessed as reduction in STAT3 phosphorylation at 3 uM incubated under normoxic condition by Western blot analysis; format: cell-based; conditions: Homo sapiens
[22] = Cytotoxicity against HUVEC cells assessed as inhibition of cell growth; format: toxicity, cell-based; conditions: human
[23] = Prodrug release in PBS buffer in presence of NADH and nitroreductase assessed as N-tert-butyl-3-[[5-methyl-2-(4-piperazin-1-ylanilino)pyrimidin-4-yl]amino]benzenesulfonamide formation at 10 uM and measured after 120 mins under hypoxic condition by LC-MS/MS analysis; format: ADME; conditions: 2 h
[24] = tested on: HEL; assay: Cytotoxicity against HEL cells assessed as inhibition of cell growth incubated under normoxic condition; format: functional, cell-based; conditions: Homo sapiens
[25] = Toxicity in Balb/c nude mouse xenografted with HEL cells assessed as reduction in body weight at 40 to 80 mg/kg, ip administered for 14 consecutive days; format: organism-based; conditions: in vivo, 336 h, dose 40-80 mg/kg, time 14 day
[26] = tested on: Mus musculus; assay: In vivo inhibition of JAK/STAT signalling in Balb/c nude mouse xenografted with HEL cells assessed as reduction in STAT5 phosphorylation in kidney at 40 to 80 mg/kg, ip administered for 14 consecutive days by Western blot analysis; format: functional, organism-based; conditions: dose 40-80 mg/kg, time 14.0 day
[27] = tested on: Mus musculus; assay: In vivo inhibition of JAK/STAT signalling in Balb/c nude mouse xenografted with HEL cells assessed as reduction in STAT3 phosphorylation in spleen at 40 to 80 mg/kg, ip administered for 14 consecutive days by Western blot analysis; format: functional, organism-based; conditions: dose 40-80 mg/kg, time 14.0 day
[28] = Stability of compound in PBS measured after 24 hrs; format: physicochemical; conditions: buffer, 24 h

SMILES: Cc1cc(COC(=O)N2CCN(c3ccc(Nc4ncc(C)c(Nc5cccc(S(=O)(=O)NC(C)(C)C)c5)n4)cc3)CC2)c(OCc2cnc([N+](=O)[O-])n2C)c(COC(=O)n2cc(NC(=O)NC3CC3)c(-c3nc4cc(CN5CCOCC5)ccc4[nH]3)n2)c1
- inhibition in vivo at 40 mg/kg [1]: 59.8%
- inhibition in vivo at 80 mg/kg [2]: 88.9%
- inhibition [3]: inactive
- inhibition [4]: inactive
- Activity [5]: Active
- inhibition [6]: inactive
- inhibition [7]: inactive
- inhibition [8]: Active
- inhibition [9]: Active
- Stability [10]: Stable
- inhibition [11]: inactive
- Drug metabolism [12]: 6.49 µM
- inhibition [13]: inactive
- inhibition [14]: inactive
- Stability [15]: Stable
- inhibition [16]: inactive
- IC50 [17]: 3.1 µM
- Drug metabolism [18]: Metabolite_Detected
- inhibition [19]: inactive
- Drug metabolism [20]: Metabolite_Detected
- inhibition [21]: inactive
- IC50 [22]: 84.4 µM
- Drug metabolism [23]: 6.57 µM
- IC50 [24]: > 200 µM
- Activity [25]: Non-Toxic
- inhibition [26]: inactive
- inhibition [27]: inactive
- Stability [28]: Stable

Reference: ChEMBL document CHEMBL5385890, “A JAK tyrosine kinase and pseudokinase Co-inhibition strategy combines enhanced potency and on-demand activation” (Eur J Med Chem, 2023)
